Experimental findings from patent US10011813B2, “Methane oxidation methods and compositions” (California Institute of Technology, priority 2015, dated 2018) are described below.

The test system of series [1] is methane seep sediment (ANME archaea). In words: AOM rate measurement via 13C-methane (newly formed DIC) in methane seep sediment incubations. Format: cell-based, ANME-2a and ANME-2c. The source says:
General description of methane oxidation measurements via ^13C-methane. Methane oxidation was quantified by determining the production of inorganic carbon (“CO2”). Accurate quantification of the concentration of inorganic carbon formed from methane oxidation is challenging due to 4 main reasons:
A defined amount of added DIC in artificial, buffered seawater was used with a low calcium concentration to prevent carbonate precipitation (see medium composition). As ^13CH4 was the only ^13C-enriched carbon source added, the newly formed ^13C-DIC must be derived from methane. For low methane oxidation rates (less than ca. 5% relative to sulfate as the oxidant or electron acceptor), however, enzyme-catalyzed isotope exchange between methane and DIC, needs to be taken into account, because it contributes to ^13C enrichment of the DIC without net methane oxidation, resulting in an overestimation of net methane oxidation. […] Details of both methods, the ^13CH4 experiments and the standard addition are described herein.
Incubation conditions for AOM rate measurement. Each incubation vial was set up with 1.0 cm^3 wet sediment (wet sediment=volume of sediment after allowing the sediment slurry settle for 48 h) in total slurry volume of […] as follows: Sterile serum vials were closed with butyl rubber stoppers (volume=12.9 ml after closing) and flushed with methane. 1.0 mL ^13CH4 (99% ^13C, Cambridge Isotope Laboratories, containing 0.05 vol % ^13CO2 as an impurity) was introduced anaerobically. 2.0 mL of artificial, anaerobic seawater containing 2.5× the target concentration of the corresponding electron acceptor was injected into the serum vial cooled on ice. For AQDS and 1,5-AQDS, this was a suspension corresponding to 25 mM (see TABLE 3).
The 1 L pyrex bottle with the sediment in the sulfate-free medium (1 part wet sediment in 3 parts of slurry volume) was vigorously shaken each time and 3.0 mL of slurry immediately removed and injected into the individual serum bottles. Each stoppered serum vial was supplemented with unlabeled methane (0.250 MPa overpressure: pressure gauge SSI Technologies, Inc., Media Gauge™) shaken and stored inverted at 4° C. (final headspace: 0.35 MPa methane, with ca. 4% ^13CH4). The exact fractional abundance of ^13C in the methane was quantified via ^1H-NMR spectroscopy for individual incubations.
AOM rate measurements (quantification of newly formed DIC based on ^13CH4). For ^13C-DIC analysis, 0.25 mL of the medium above the settled sediment in the microcosm was sampled with a disposable needle and syringe at each time point (same intervals for all experiments) and centrifuged (16000 rcf, 5 min). The supernatant was transferred into 0.6 mL eppendorf tubes, flash frozen in N2 (l), and stored at −20° C. until measurement. 150 μL of the thawed supernatant was then added to He-flushed vials containing 100 μL H3PO4 (85%). The resulting CO2 was analyzed for the isotopic enrichment (^13F(tn)) on a GC-IR-MS GasBench II (Thermo Scientific). The amount of DIC newly formed (Δ[DIC](tn), see FIG. 6B) was calculated from the measured ^13F (fractional abundance of ^13C), neglecting isotope effects on AOM according to Equation (1): Δ[DIC](tn)=[DIC](t0)*(^13F(tn)−^13F(t0))/(^13F(CH4)−^13F(tn)) (EQ. 1)

For another series, the system named is ANME-SRB consortia. Description: FISH-nanoSIMS 15N incorporation (anabolic activity) of ANME-SRB consortia. The series is classed as cell-based, ANME-2c archaea and Desulfobacteraceae. Here is the method:
Incubations for FISH-nanoSIMS and RNA analysis. For AOM incubations with sulfate or AQDS that were used for nanoSIMS (FIG. 7 and FIG. 8A) and RNA analysis (FIG. 6), incubations experiments were set up following the AOM-rate measurements described above (initially containing 1.0 mM ammonium without ^15N label). Methane oxidation rates were tracked in these incubations via the ^13C label. After 11 days, ca. 3.5 mL of supernatant remained in the serum bottles to which 3.0 mL artificial seawater without ammonium containing either 25 mM AQDS, 28 mM sulfate, or no oxidant or electron acceptor was added. Next, 0.1 mL ^15NH4^+ (100 mM) was injected to yield about 2.0 mM ammonium with ca. 75% ^15N. Methane oxidation was monitored. After additional 8 days, the medium of the AQDS incubations was exchanged by 5.0 mL new medium containing 25 mM AQDS and 2.0 mM ^15NH4^+. Now the AQDS incubations contained ca. 95% ^15NH4^+ in the ammonium pool. The cultures were incubated for additional 10 days before harvest. Total incubation time with labeled ammonium: 18 days. Average labeling strength: ca. 75% for sulfate and no oxidant or electron acceptor control; ca. 86% for the AQDS incubations.
For the second independent set of experiments with iron citrate, humic acids and sulfate (FIG. 8B), the medium contained 1.0 mM ammonium with ca. 40% ^15N label throughout the incubation period. These experiments were carried out from identical incubations that were for the AOM rate measurements (highlighted in Table 4). In regards to Table 4, the percentage AOM rates are reported relative to sulfate-coupled AOM (1.50 μmol cm^−3 day^−1). Top: Summary of compounds described in FIG. 1B; Bottom: Oxidants or electron acceptors resulting in an AOM rate less than 0.10 μmol […] day^−1 (<7% rel. to sulfate as oxidant or electron acceptor).
Sampling for FISH-nanoSIMS and RNA. After an 18-day incubation in the presence of ^15NH4^+, each incubation was shaken to suspend the sediment and 1.0 mL sediment slurry was sampled using a disposable sterile needle and syringe (ca. 0.3 mL wet sediment). […]
Sample preparation for aggregate embedding, sectioning, FISH, and nanoSIMS. […] Sections of ca. 1 μm thickness were cut and stretched on a water droplet on a polylysine coated slide with teflon wells (Tekdon Inc) and analyzed by fluorescence in situ hybridization (FISH). […]
FISH conditions and probes. The FISH hybridization on thin sections of resin embedded microbial aggregates followed the recently optimized protocol described in S. E. McGlynn et al. The phylogenetic identity of microorganisms in the thin sections were determined using conventional FISH using oligonucleotide probes fluorescently labeled on both the 5′ and 3′ ends (dual labeled) as outlined herein. […]

Series [2] is described as follows: Quantification of AQDS solubility in the incubation medium. Format: physicochemical. Here is the method:
Quantification of AQDS solubility in the incubation medium. Different regioisomers of AQDS (1,5-AQDS, 2,6-AQDS and 2,7-AQDS) were separately added to the modified artificial seawater described above, to a targeted final concentration of 25 mM. The suspensions were ultra-sonicated at room temperature to dissolve as much of the AQDS as possible. The tubes were kept at 4° C. or at 22.5° C. overnight. The tubes were centrifuged at 4° C. or 22.5° C. (16000 rcf, 30 min). The supernatant (300 μL) was mixed with 300 μL acetate (10.0 mM) as the internal standard and 100 μL deuterated water (99.9% D, Cambridge Isotope Laboratories) was added. The concentration of AQDS was obtained from integration of the ^1H-NMR spectra by comparison relative to the acetate standard.

The test system of series [3] is methane seep sediment (ANME archaea). Description: Quantification of sulfide (methylene blue method) in AOM incubations. Format: cell-based, ANME-2a and ANME-2c. The following applies: Sulfate 28 mM, after 21-day incubation. The method, then: Quantification of sulfide. Supernatant was removed via syringe and centrifuged in 0.6 mL Eppendorf tubes (16000 rcf, 30 s). 20 μL of the clear supernatant was removed and added to 400 μL Zn(OAc)2 (500 mM) to preserve the sulfide. Analysis was carried out in triplicate via the methylene blue method described in J. D. Clin (Waters. Limnol. Oceanogr. 14:454 (1969)), using standards of 0.1, 0.25, 0.5, 1, 2, 5, 10 and 25 mM sulfide added to Zn(OAc)2 (500 mM) in the same ratios as for the samples. Quantification was carried out in a plate reader (TECAN Sunrise™) by monitoring the absorbance at 670 nm.

In brackets after ≈: the same amount, converted by molar mass. Several values for one entry are separate records, joined by “and”; a condition that tells them apart may be missing. Identical values can stand only once. Marks after values point to notes of the source that are not given here.

With `O=C([O-])CC(O)(CC(=O)[O-])C(=O)[O-].[Fe+3]` [Fe(III)-citrate], the “Rate relative to AOM with sulfate” value in series [1] (2 mM, with 25 mM MoO4^2−) is recorded as 7%; in series [1] (5 mM, with 25 mM MoO4^2−), 37%; in series [1] (10 mM, no MoO4^2−) it was 53%; in series [1] (10 mM, with 25 mM MoO4^2−) it was 46%; in series [1] (25 mM, with 25 mM MoO4^2−), 2.5%. Further, the “AOM consortia anabolically active (>10% archaeal activity relative to sulfate treatments, or >0.8 at % 15N)” value in the series with ANME-SRB consortia (second set of experiments, ca. 40% 15N) is given as 14 out of 31.
For the compound `O=c1ccc2[n+]([O-])c3ccc(O)cc3oc-2c1` [Resazurin], the “Rate relative to AOM with sulfate” value in series [1] (10 mM, no MoO4^2−) is recorded as ≤1.5 ^† %.
On to `O=C1c2ccc(S(=O)(=O)O)cc2C(=O)c2cc(S(=O)(=O)O)ccc21` [2,7-AQDS, 9,10-anthraquinone-2,7-disulfonate], for which the “Rate relative to AOM with sulfate” value in series [1] (10 mM, no MoO4^2−) is 97%. Besides, the “Solubility in the incubation medium” value in series [2] (4° C.) and in series [2] (22.5° C.) was over 25 mM throughout.
Regarding `O=C1c2cccc(S(=O)(=O)O)c2C(=O)c2cccc(S(=O)(=O)O)c21` [1,5-AQDS, 9,10-anthraquinone-1,5-disulfonate], in series [1] (10 mM, no MoO4^2−), the “Rate relative to AOM with sulfate” value was found to be 38%. Moreover, the “Solubility in the incubation medium” value in series [2] (4° C.) came to 2.5 mM (≈ 921 µg/mL).
In the case of `O=C([O-])CN(CCN(CC(=O)[O-])CC(=O)[O-])CC(=O)[O-].[Fe+3]` [Fe(III)-EDTA], the “Rate relative to AOM with sulfate” value in series [1] (1.6 mM, no MoO4^2−) is reported as 8%; in series [1] (10 mM, no MoO4^2−), ≤1.5 ^† %.
For `O=C1C(=C2Nc3c(cc(S(=O)(=O)O)cc3S(=O)(=O)O)C2=O)Nc2c1cc(S(=O)(=O)O)cc2S(=O)(=O)O` [Indigo tetrasulfonate], in series [1] (10 mM, 1 mM, no MoO4^2−), the “Rate relative to AOM with sulfate” value was ≤1.5 ^† %.
For the compound `CN(C)c1ccc2nc3ccc(=[N+](C)C)cc-3sc2c1` [Methylene blue], the “Rate relative to AOM with sulfate” value in series [1] (1 mM, no MoO4^2−) is ≤1.5 ^† %.
On to `Cc1cc2nc3cc(C)c(N)cc3[n+](-c3ccccc3)c2cc1N.[Cl-]` [Safranine T], for which, in series [1] (10 mM, 1.6 mM, no MoO4^2−), the “Rate relative to AOM with sulfate” value was ≤1.5 ^† %.
In the case of 1-Hydroxynaphthoquinone, the “Rate relative to AOM with sulfate” value in series [1] (10 mM, 1 mM, no MoO4^2−) was ≤1.5 ^† %.
For `O=S(=O)(O)O` [Sulfate], the “Rate relative to AOM with sulfate” value in series [1] (28 mM, no MoO4^2−, 100% = 1.50 μmol cm^−3 day^−1) is 100%; in series [1] (28 mM, with 25 mM MoO4^2−), 20%. The DIC formed in series [1] (Sulfate 28 mM, after 21-day incubation) was 6.44 mM and 7.77 mM and 7.51 mM and 7.29 mM. Moreover, the “sulfate-coupled AOM rate” value in series [1] (reference rate (100%) of Table 4) is reported as 1.50 μmol cm^−3 day^−1. Also, the AOM rate in series [1] (sediment characterization) is 1.5 μmol methane (cm^3 wet sediment)^−1 d^−1. For the same compound, the “sulfide (sum of HS^− and H2S), final concentration” value in series [3] was 5.9 mM and 6.5 mM and 7.0 mM and 6.1 mM. Also, the “doubling time of ANME cells based on average 15N-incorporation” value in the series on ANME-SRB consortia (18 days with 15NH4+) was 2.9 months.
With `O=C([O-])CN(CC(=O)[O-])CC(=O)[O-].[Fe+3]` [Fe(III)-NTA], the “Rate relative to AOM with sulfate” value in series [1] (1 mM, no MoO4^2−) is reported as 2.5%; in series [1] (10 mM, no MoO4^2−), ≤1.5 ^† %.
Regarding `Nc1ccc2nc3ccc(N)cc3[n+](-c3ccccc3)c2c1` [Phenosafranine], the “Rate relative to AOM with sulfate” value in series [1] (10 mM, 1.6 mM, no MoO4^2−) is reported as ≤1.5 ^† %.
In the case of `COS(=O)(=O)[O-].C[n+]1c2ccccc2nc2ccccc21` [Phenazine methosulfate], the “Rate relative to AOM with sulfate” value in series [1] (1 mM, no MoO4^2−) is recorded as ≤1.5 ^† %.
Regarding `[Na+].[Na+].[O]=[Mo](=[O])([O-])[O-]` [molybdate, sodium molybdate], in series [1] (25 mM molybdate, AQDS 10 mM), the “effect on methane oxidation in sulfate-free incubations containing AQDS” value was “no inhibitory response”. Moreover, in series [1] (25 mM molybdate, sulfate 28 mM), the “effect on rates of sulfate-coupled AOM relative to controls” value was “decreased by approximately fivefold”.
